In brackets after ≈: the same amount, converted by molar mass. Like-named read-outs stand apart in the source and are kept apart here.

One experiment has as its system Treponema hyodysenteriae. In words: in vitro antibacterial MIC (tube dilution, 24 hours). Format: cell-based. As to conditions: Brachyspira hyodysenteriae. How it is done: (§1) In Table I, below, the results of in vitro tests are summarized. For this test each organism is inoculated in a series of test tubes containing nutrient medium and varying concentrations of Antibiotic UK No.-61,689 to determine the minimal concentration of the compound in μg./ml. which inhibits the growth of the organism over a period of 24 hours (MIC).

Another experiment has as its system Actinomyces pyogenes. The experiment is described as above. Format: cell-based. How it is done:
as §1

Another experiment concerns Clostridium perfringens. Put plainly: microbe, parasite or virus in culture. Particulars: 24 h. The format is cell-based.
The subject of a further experiment is coccidial infections. In words: activity against coccidial infections in poultry (lesion scores). As to conditions: in diet of chickens.
A further experiment has as its system rumen fluid. Put plainly: in vitro rumen technique, propionic acid production. Format: cell-based, cow. As to conditions: 20 micrograms per milliliter, 39° C., about 16 hours, read-out: increase in the production of propionic acid over control solution. How it is done: The value of animal feeds has generally been determined directly by feeding the animal. British Patent Specification No. 1,197,826 details an in vitro rumen technique whereby the changes occurring in feed brought about by microorganisms are measured more readily and with great accuracy in the evaluation of animal feeds. This technique involves the use of an apparatus in which the digestive processes of the animals are conducted and studied in vitro. The animal feeds, rumen inoculum and various growth promotants are introduced into and withdrawn from a laboratory unit under carefully controlled conditions and the changes taking place are studied critically and progressively during the consumption of the feed by the microorganisms. […] The change in propionic acid content is expressed as percent of the propionic acid content found in the control rumen fluid. Long term in vivo feeding studies are used to show a reliable correlation between propionic acid increase in the rumen fluid and improved animal performance. […]
After incubation, 5 ml. of the sample is mixed with 1 ml. of 25% metaphosphoric acid. […] Samples are then analyzed by gas-liquid chromatography by the method of D. W. Kellog, J. Dairy Science, 52, 1690, 1969. Peak heights for acetic, propionic and butyric acids are determined for samples from untreated and treated incubation flasks.

The next experiment concerns Eimeria tenella. Put plainly: efficacy against coccidial infection in chickens (lesion scores). Particulars: in diet of chickens at 15 to 120 ppm; six days.
The subject of the next experiment is E. maxima. Described as above. As to conditions: in diet of chickens at 15 to 120 ppm; six days.
The subject of a further experiment is E. brunetti. The experiment is described as above. As to conditions: in diet of chickens at 15 to 120 ppm; six days.
The test system of a further experiment is E. acervulina. The description is as above. Particulars: in diet of chickens at 15 to 120 ppm; five days.
The test system of a further experiment is E. necatrix. Described as above. Particulars: in diet of chickens at 15 to 120 ppm; six days.

As to `COC1CCC(OC2CC(C3OC(C)(O)C(C)CC3C)OC2C2(C)CCC(C3(C)CCC4(CC(O)C(C)C(C(C)C5OC(O)(CC(=O)O)C(C)C(O)C5OC)O4)O3)O2)OC1C` (stereo not shown) [Antibiotic UK No.-61,689], the MIC in the experiment on Treponema hyodysenteriae (strain 94A001) came to 6.25 µg/mL (≈ 7.16 µM); in the experiment on Treponema hyodysenteriae (strain 94A002) it was 6.25 µg/mL (≈ 7.16 µM); against Treponema hyodysenteriae (strain 94A007), 3.12 µg/mL (≈ 3.57 µM); against Treponema hyodysenteriae (strain 94A008), 3.12 µg/mL (≈ 3.57 µM); in the experiment with Actinomyces pyogenes (Trueperella pyogenes, strain 14D002, read-out: MIC), 0.39 µg/mL (≈ 0.447 µM); against Actinomyces pyogenes (strain 14D008) it was 0.39 µg/mL (≈ 0.447 µM). The MIC against Actinomyces pyogenes (strain 14D011) was 0.39 µg/mL (≈ 0.447 µM); with Clostridium perfringens (strain 10A006), 25 µg/mL (≈ 28.6 µM); in the experiment with Clostridium perfringens (strain 10A009), 3.12 µg/mL (≈ 3.57 µM). Besides, the “activity against coccidial infections in poultry” value in the experiment on coccidial infections is recorded as “excellent activity”. Moreover, in the experiment with rumen fluid, the activation at 20 µg/mL was about 80%. Further, the “controlling infections due to Eimeria tenella” value in the experiment on Eimeria tenella was “effective in controlling infections”. In addition, the “controlling infections due to E. maxima” value in the experiment with E. maxima is recorded as “effective in controlling infections”. Moreover, the “controlling infections due to E. brunetti” value with E. brunetti is “effective in controlling infections”. In addition, the “controlling infections due to E. acervulina” value in the experiment on E. acervulina is on record as “effective in controlling infections”. Moreover, the “controlling infections due to E. necatrix” value with E. necatrix is on record as “effective in controlling infections”.

The record behind these values is patent US4992466A, “Polycyclic ether antibiotic” (Pfizer Inc., priority 1986, dated 1991).
